# Experimental data from patent publication US20120190615A1, “METHODS AND COMPOSITIONS FOR INDUCING WEIGHT LOSS” (Sanford-Burnham Medical Research Institute, priority 2011, published 2012).
# “And” between values parts separate entries of the source, which are not always exact repeats. Equal entries are not always repeated.
# How the values were obtained:
# HIB1 cells = test: Differentiation of HIB1 brown preadipocytes (lipid accumulation, mitochondrial biogenesis); type: cell-based; conditions: 24 hours, absence of standard induction cocktail
# Protocol: To further investigate the role of OX in BAT differentiation, the effect of OX on the preadipocyte cell line HIB1 was evaluated. […] Expression of genes functioning in lipid metabolism and mitochondrial biogenesis was elevated while the anti-adipogenic factors […], Pref1, and Wnt10 were expressed at very low levels (FIG. 16).
# HIB1 cells were stably transfected with lentivirus over-expressing orexin (Len-OX) and compared to vector controls in the absence or presence of exogenous OX (100 nM), Cells were cultured for 7 days in the absence of differentiation medium and stained with Oil Red O. By day 6 of adipogenic differentiation, orexin-expressing cells had undergone normal BAT differentiation as scored by lipid accumulation.
# Brown fat morphological defects seen in both adult and newborn OXR1 KO mice were similar to those observed in OX KO mice. […] To examine the cellular and molecular consequences of OXR1 depletion, lentiviral vectors were used to express a short hairpin (sh) shRNA targeting OXR1 (shOXR1; Open Biosystems, Inc., catalog no. RMM4431-98766481) or a scrambled shRNA control (Open Biosystems, Inc., catalog no. RHS4346) in HIB1 mesenchymal cells. […] After 5 days of differentiation, cultures expressing the scrambled shRNA control had undergone brown fat differentiation as scored by Oil Red O staining and shown in FIG. 18. […]
# BMP signaling = BMP signaling in C3H10T1/2 cells (qPCR of Bmpr1a and BMP-7, Smad 1/5/8 phosphorylation); type: cell-based, mouse; conditions: 100 nM OX 3 days
# Text: Bone morphogenic proteins, which are members of the TGF-β superfamily, control critical steps in development and differentiation and are important regulators of both WAT and BAT adipogenesis. BMP-2 and -4 induce white fat adipogenesis, while BMP-7 enhances brown fat traits. BMP-7 functions through interacting with BMP receptors, which mediate Smad 1/5/8 phosphorylation, to stimulate brown fat adipogenesis.
# [1] = test system: wild-type C57BL6 mice fed a high fat diet; test: High fat diet six weeks with OX once per day, body weight and NMR body composition (Example 11); type: in vivo; conditions: HFD six weeks
# Protocol: To confirm these findings and investigate the role for OX in energy metabolism and to prevent obesity, wild-type C57BL6 mice were fed a high fat diet (HFD) for six weeks. During this period, half of the mice received OX intraperitoneally once per day, while the other half was injected with saline. Food intake and body weight of both groups were monitored weekly. OX-treated mice ate more, resisted weight gain, were visibly lean, and accumulated less fat. […] Fat and lean mass were determined by subjecting mice to nuclear magnetic resonance (NMR) (Bruker, The Woodlands, Tex., United States) following a four-hour fast. OX therapy had no impact on either the lean mass or total fluid content. FIG. 27 illustrates these findings. Weekly energy intake, cumulative energy consumed, body weight gain over six weeks, and differences in body size between the two groups of mice are depicted.
# [2] = test system: WtB6 mice fed a high fat diet; test: High fat diet six weeks with two weekly OX injections, obesity resistance (Example 12); type: in vivo
# Text: To confirm that OX prevents obesity under conditions of caloric excess, a high fat diet (HFD) was fed to WtB6 mice for six weeks. Mice received two weekly OX or PBS injections (n=6/group). Food intake and body weight of both groups were monitored weekly. […] OX-injected animals, however, resisted weight gain, which became apparent during the second wk of therapy (FIG. 28B). At the conclusion of the treatment period, OX-treated mice were visibly lean (FIG. 28C, D) and weighed 7 g±1.2 g less than the control group (FIG. 28B, Table 3). […] Total visceral fat was reduced by more than 60%. Visceral fat in the OX-injected group was noticeably darker in color relative to control tissue (FIG. 28E, F).
# Further, the respiratory quotient of OX-injected group was 10% lower than the vehicle injected group, indicating higher fat oxidation capacity (FIG. 28J). […] To determine whether systemic OX injection induces BAT activity, mice with OX (10 mg/kg) or PBS were compared, using relative UCP-1 expression as an indicator for BAT activity 24-hours post-injection.
# [3] = test system: Mouse embryonic fibroblasts (MEFs); test: Differentiation of mouse embryonic fibroblasts to a BAT lineage; type: cell-based; conditions: 3-day treatment, 7-10 days without induction cocktail, Oil Red O
# Text: Mouse embryonic fibroblasts (MEFs) resemble mesenchymal cells in their ability to differentiate into various mesenchymal lineages. To determine whether OX triggers commitment of embryonic fibroblasts to a BAT lineage, MEFs isolated at […] were exposed to a differentiation protocol involving a 3-day treatment with Orexin A and BMP-7, and differentiation in the absence of the standard induction cocktail of IBMX, thiazolidone, and indomethacin for a further 7-10 days.
# C57BL/6 mice = test: Single intraperitoneal OX injection, indirect calorimetry (CLAMS) and iBAT analysis; type: in vivo; conditions: single 30 mg kg−1 i.p. dose
# Protocol: One dose of 30 mg kg^−1 OX was administered intraperitoneally in a single dose to 6-8 week C57BL/6 mice, and metabolic rates and energy expenditure of those mice were then compared to 1 mg kg^−1 isoproterenol- or vehicle (PBS) control-injected mice. Isoproterenol is a beta-sympathomimetic and serves as a reference for Ucp1 expression and brown fat activity. Metabolic rates were measured by indirect calorimetry using the Comprehensive Lab Animal Monitoring System (CLAMS, Columbus Instruments). Food and water were available ad libitum. Mice were acclimatized to individual cages for 24 hours prior to recording, and then underwent 24 hours of monitoring.
# Increased energy expenditure was positively correlated with iBAT lipolysis, as evident from depletion of fat droplets. […] As a consequence, core body temperature was elevated by OX injection.
# [4] = HFD six weeks, two weekly injections
substance,measurement,setting,value
"orexin-A (EPLPDCCRQKTCSCRLYELLHGAGNHAAGILTL) [OX, human orexin A, cat; No. 24470, Anaspec]",lipid accumulation and mitochondrial biogenesis,HIB1 cells,induced extensive lipid accumulation and mitochondrial biogenesis
same,BMP-receptor 1A and BMP-7 mRNA expression,BMP signaling,induced
same,abdominal obesity of control mice relative to OX-treated mice,[1]; OX i.p. once per day,3.5 times
same,body fat accumulated by control mice relative to OX-treated mice,[1]; OX i.p. once per day,twice as much body fat
same,control mice heavier than OX-treated mice,[1]; OX i.p. once per day,approximately 35%
same,impact on lean mass or total fluid content,[1]; OX i.p. once per day,no impact
same,% body fat,"[1]; NMR, n=4",15 ± 1.1%
same,Fat mass,"[1]; NMR, n=4",3.4 ± 0.4
same,Fluid content,"[1]; NMR, n=4",7.7 ± 1.5
same,Lean mass,"[1]; NMR, n=4",18.7 ± 1.1
same,Lean mass-fat mass ratio,"[1]; NMR, n=4",5.5 ± 0.3
same,% body fat,[2]; [4],15% and 15 ± 1.1%
same,Fat mass,[2]; [4],3.4 ± 0.4
same,Fluid content,[2]; [4],7.7 ± 1.5
same,Lean mass,[2]; [4],18.7 ± 1.1
same,Lean mass-fat mass ratio,[2]; [4],5.5 ± 0.3
same,iBAT UCP1 expression,"[2]; OX 10 mg/kg, 24-hours post-injection",higher UCP1 levels than controls
same,body weight less than the control group,[2]; at the conclusion of the treatment period,7 g
same,"oxygen consumed, more than the control group",[2]; calorimetric measurements,15%
same,"respiratory quotient, lower than the vehicle injected group",[2]; calorimetric measurements,10%
same,reduction of total visceral fat,[2]; end of the study,more than 60%
same,reduction of whole body fat mass,[2]; end of the study,50%
same,physical activity,"[2]; infrared monitoring, two weeks",not more physically active
same,increase in twenty-four hour energy expenditure,[2]; relative to control mice,19%
same,cumulative food intake over the 6-week period,[2]; versus vehicle,not significantly different
same,food intake during the first week,[2]; versus vehicle,ate significantly more
same,lean mass or fluid content,[2]; versus vehicle,not significantly different
same,phenotype of treated MEFs,[3],adopted a BAT phenotype
same,core body temperature,C57BL/6 mice,elevated
same,food consumption,C57BL/6 mice,increased food consumption
same,increase in whole-body energy expenditure,C57BL/6 mice,23-25%
same,oxygen consumption,C57BL/6 mice,stimulated oxygen consumption
same,physical activity,C57BL/6 mice,decreased physical activity
same,"prdm16, Pgc1-alpha, C/ebp-alpha, Dio2, Ucp-1 expression in BAT",C57BL/6 mice,induced
same,extent of iBAT lipolysis,C57BL/6 mice; isoproterenol 1 mg kg−1 reference,comparable to that induced by isoproterenol
